Experimental findings from patent publication US11999737B2, “Kinase inhibitors and related methods of use” (Duke University, priority 2014, dated 2024) are described below.

Entries after “also recorded” stand apart in the source; their conditions may differ.

One test has as its system rabbit ileum. Put plainly: Carbachol-induced Ca2+-sensitized force in α-toxin permeabilized rabbit ileum. The following applies: HS38 50 μM, at 20 min, pCa 6.5. The method, then: A. Typical force trace and graphical representation showing the effect of HS38 (50 μM) on carbachol-induced, Ca^2+ sensitized force in α-toxin permeabilized rabbit ileum. HS38 induced an approximate 30% decrease in the plateaued force at 20 min. (mean±S.E., n=7). B, Western blot analysis of RLC20 and MYPT1 Thr696 phosphorylation following treatment with HS38 (50 μM). […] C. Typical force trace showing the effect, of HS38 on Ca^2+-independent force production in rabbit ileum smooth muscle. […] E. Both the lag time to the onset of force (p <0.05, n=3) and the rate of force development (t1/2) (p <0.02, n=3) were increased following the addition of MC-LR in the presence of HS38 (mean±S.E., n=3).
Tissue Preparation and Force Measurements. […] Intact strips of mouse abdominal aorta were challenged with phenylephrine following pretreatment with HS38 or diluent, DMSO or HS38 and DMSO were added after maximal phenylephrine-induced force was achieved and force output measured. […] For Ca^2+ activating solutions, EGTA (10 mM) and a calculated amount of Ca-methanesulfonate was added to give the desired free Ca^2+ concentration ((Horiuti (1988) J. Physiol.-London 398, 131-148). […]

The test system of the next test is intact mouse aorta. The test can be described thus: Phenylephrine-induced contractile force of intact mouse aorta (myograph). The method, then:
A, Typical myograph force trace showing the effect of HS38 on intact mouse aorta contractility. The maximum contractile force of PE-induced contraction was reduced by approximately 30% when HS38 (10 μM) was added five minutes prior to PE addition and by approximately 40% when added ten minutes after PE addition. B, Serum-starved aortic SM cells were treated with SIP (0.25 μM) and HS-38 (±50 μM) for 30 min.
Tissue Preparation and Force Measurements. All protocols and procedures for tissue harvest were carried out according to protocols approved by the Animal Care and Use Committees at the University of Virginia and Duke University, Helical strips of mouse aorta or strips of rabbit ileum were dissected, (˜400 μm wide, 2 mm long) and mounted between two tungsten hooks on a bubble plate for force measurements (Horiuti (1988) J. Physiol.-London 398, 131-148). […] Intact strips of mouse abdominal aorta were challenged with phenylephrine following pretreatment with HS38 or diluent, DMSO or HS38 and DMSO were added after maximal phenylephrine-induced force was achieved and force output measured. […] For Ca^2+ activating solutions, EGTA (10 mM) and a calculated amount of Ca-methanesulfonate was added to give the desired free Ca^2+ concentration ((Horiuti (1988) J. Physiol.-London 398, 131-148).

Test [1] relates to human cerebral arterioles. Put plainly: Pressure myography of isolated human cerebral arterioles, myogenic tone. To be noted: HS-38 10 μM, ex vivo. From the text: A human cerebral artery (CA) was harvested during a tumour removal. Cerebral tissue was obtained from a person with metastatic adenocarcinoma from lung. Surface vessels of the anterior cerebral artery off the midline over the left anterior frontal lobe were dissected for analysis. […] Pressure-induced changes in arteriolar diameter (A) as well as diameter-pressure relationships (B) and arterial constriction (C) are shown. Data are from n=1 vessel. The passive diameter at 120 mmHg was ˜290 μm. Vessels of similar diameter were isolated, proteins were extracted with SDS-PAGE buffer and immunoblotted (D) for ZIPK and α-actin as a loading control.
A human cerebral artery (CA) was harvested during a tumor removal. Cerebral tissue was obtained from a person with metastatic adenocarcinoma from lung. Surface vessels of the anterior cerebral artery off the midline over the left anterior frontal lobe were dissected for analysis. […]
Pressure-induced changes in arteriole diameter (A) as well as diameter-pressure relationships (B) and arterial constriction (C) are shown. […] Bands were quantified with a LAS4000 gel analyzer.
Tissues were obtained from patients undergoing resections for treatment for epilepsy or tumors. Surface vessels of ˜200 μm diameter were analyzed by pressure myography and western immunoblotting.

Test [2] has as its system spontaneous hypertensive rat (SHR). The test can be described thus: HS-38 treatment of spontaneous hypertensive rats, vessel properties. The format is in vivo. The method, then:
The myogenic response and ZIP-dependency of pressure autoregulation were assessed. Two age groups, 8-10 weeks and 18-20 weeks, were used to permit identification of age-dependent alterations in myogenic responses associated with the onset of diabetes/hypertension and after the diseases had become fully established. Two rat models were used, spontaneous hypertensive rat(SHR) model, and Goto-Kakizaki (GK) rat model of type 2 diabetes (T2D). […] HS-38 treatment attenuated myogenic hypercontractility in the cremaster artery of spontaneously-hypertensive rats (SHR; FIG. 33; WKY=Wistar Kyoto rat, control).
No effect of HS38 was observed on the ratio of wall thickness/vessel diameter in the SHR mesenteric artery.

For `CC(Sc1nc2c(cnn2-c2cccc(Cl)c2)c(=O)[nH]1)C(N)=O` (centres unmarked) [HS38], in the test with rabbit ileum, the “decrease in plateaued carbachol-induced Ca2+-sensitized force” value is approximately 30%. Also, the “reduction of maximum contractile force of PE-induced contraction” value in the test with intact mouse aorta (HS38 10 μM added five minutes prior to PE addition) is “approximately 30%”. For the same molecule, the “reduction of maximum contractile force of PE-induced contraction” value in the test on intact mouse aorta (HS38 10 μM added ten minutes after PE addition) is recorded as “approximately 40%”. In addition, in test [1], the myogenic tone development entry is “appeared to attenuate; also recorded: suppressed”. For the same molecule, in test [2] (HS-38 treatment), the circumferential strain result is on record as “increased” and the “vessel narrowing seen in hypertension” value was “partially reversed”. The “myogenic hypercontractility in the cremaster artery” value in test [2] (HS-38 treatment, SHR) is listed as “attenuated”. In test [2] (SHR mesenteric artery), the “ratio of wall thickness/vessel diameter” value is “No effect”.
